Source: PubChem BioAssay (NCI)
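48-hour exposure; five concentrations; linearly interpolated endpoints. TGI is the concentration that stops growth completely.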 Where a SMILES comes first, the peptide text is derived from it. [ ]: non-standard residue; d: D form. pGlu = O=C1CC[CH](C(=O)O)N1; Thz = O=C(O)[CH]1CSCN1

Key:
Test in all cases: NCI anticancer screen, dose series, 48 h
[1] = tested on: HCC-2998 colon
[2] = tested on: EKVX NSCLC
[3] = tested on: COLO 205 colon
[4] = tested on: KM12 colon
[5] = tested on: MCF7 breast
[6] = tested on: SF-268 CNS
[7] = tested on: UACC-257 melanoma
[8] = tested on: DU-145 prostate
[9] = tested on: SNB-19 CNS
[10] = tested on: BT-549 breast
[11] = tested on: UO-31 renal

SMILES	TGI [1]	TGI [2]	TGI [3]	TGI [4]	TGI [5]	TGI [6]	TGI [7]	TGI [8]	TGI [9]	TGI [10]	TGI [11]
C[C@H](Nc1nc(N)c(N=O)c(=O)n1C)C(=O)O	> 10 µM	> 10 µM	> 10 µM	> 10 µM	> 10 µM	> 10 µM	> 10 µM	> 10 µM	> 10 µM	> 10 µM	
Cc1ccc2nc3ccccc3c(C3C4C(=O)N(c5ccc(F)cc5)C(=O)C4ON3C(C(N)=O)c3ccccc3)c2c1 (stereo not given)		> 100 µM	35.7 µM	> 100 µM	80.8 µM	> 100 µM	> 100 µM	> 100 µM	> 100 µM	> 100 µM	> 100 µM
CC(C)(C)c1ccc2c(c1)OP1(Oc3c(Cl)cc(Cl)c4cccnc34)(O2)Oc2ccc(C(C)(C)C)cc2O1	23.4 µM	> 35.7 µM	31.3 µM	20.4 µM	17.3 µM	24.7 µM	14.2 µM		22.8 µM		19.6 µM
CCn1c(SCC(=O)N/N=C2\SCC(=O)N2c2ccc(C)cc2)nc2ccccc2c1=O	> 100 µM	46.2 µM	> 100 µM	47.3 µM	45.9 µM	47.7 µM	35.3 µM	75 µM	43.6 µM		30.3 µM
Cc1nc(OCc2ccccc2)c2ncn(CCO)c2n1			> 100 µM	> 100 µM	> 100 µM	> 100 µM	> 100 µM	> 100 µM	> 100 µM	> 100 µM	> 100 µM
Cn1c(-c2ccco2)ccc1-c1ccc(C=O)o1	> 100 µM	> 100 µM	> 100 µM	> 100 µM	> 100 µM		> 100 µM	> 100 µM	> 100 µM	> 100 µM	> 100 µM
COC(=O)C(Cc1c[nH]c2ccccc12)NC(=O)C(Cc1cnc[nH]1)NC(=O)C1CCC(=O)N1C(=O)OCc1ccccc1 (stereo not given)	> 100 µM	> 100 µM	> 100 µM	> 100 µM	> 100 µM		> 100 µM		> 100 µM	> 100 µM	> 100 µM
CN1CCC2(CC1)SSC1(CCN(C)CC1)S2			> 100 µM	> 100 µM			> 100 µM		> 100 µM	> 100 µM	> 100 µM
Cc1ccc2c(c1)nc1n2C(c2c(F)cccc2F)SC1 (stereo not given)	> 100 µM	> 100 µM	> 100 µM	> 100 µM	> 100 µM	> 100 µM	> 100 µM		> 100 µM		> 100 µM
O=C1CCC(C(=O)N2CSCC2C(=O)O)N1 (stereo not given) ([pGlu]-[Thz]-OH; configuration not given here)	> 100 µM			> 100 µM	> 100 µM	> 100 µM	> 100 µM	> 100 µM	> 100 µM	> 100 µM	> 100 µM
CC(NC(=O)C1CCC(=O)N1)C(=O)N1CCCC1C(N)=O (stereo not drawn) ([pGlu]-Ala-Pro-NH2; configuration not given here)	> 100 µM	> 100 µM	> 100 µM	> 100 µM	> 100 µM	> 100 µM		> 100 µM	> 100 µM	> 100 µM	> 100 µM
Nn1c(CCCCCCCCc2nnc(-c3c(O)ccc4ccccc34)n2N)nnc1-c1c(O)ccc2ccccc12	> 100 µM		> 100 µM	> 100 µM	> 100 µM	> 100 µM	> 100 µM	> 100 µM	> 100 µM	> 100 µM	> 100 µM
CCCn1cc2c(=O)[nH]c(SC)nc2n1	> 100 µM	> 100 µM	> 100 µM	> 100 µM		> 100 µM	> 100 µM		> 100 µM		> 100 µM
CC(NC1=NCCO1)c1ccccc1Cl (stereo not given)	> 100 µM	> 100 µM	> 100 µM	> 100 µM	> 100 µM	> 100 µM	> 100 µM	> 100 µM	> 100 µM		> 100 µM
COc1ccc(S(=O)(=O)Nc2ccc(-c3csc(N4C(=O)/C(=C/c5ccccc5[N+](=O)[O-])N=C4c4ccccc4)n3)cc2)cc1Cl	63.5 µM		> 100 µM	> 100 µM	> 100 µM	> 100 µM	> 100 µM	> 100 µM	> 100 µM		73.8 µM
COC(NC(=O)Nc1ccc(C)cc1)(C(F)(F)F)C(F)(F)F			36.8 µM	> 100 µM	> 100 µM	> 100 µM		> 100 µM	87.2 µM	83.5 µM	53.6 µM
Fc1cc(C2=Nn3c(COc4ccccc4Cl)nnc3S/C2=C\c2ccc(Cl)cc2)c(Cl)cc1Cl	16.3 µM	> 100 µM		19.6 µM	83.4 µM	9.06 µM	> 100 µM	81.7 µM			93.8 µM
CC(C)(C)C1=C(Br)C(F)(C(C)(C)C)OP1(=O)c1ccccc1 (stereo not given)	28.4 µM	33.6 µM	29.4 µM	33.7 µM	30 µM	36.2 µM	30.9 µM	32 µM	30.6 µM		59.4 µM
S=P1(Sc2ccccc2)Oc2ccc3ccccc3c2-c2c(ccc3ccccc23)O1	> 100 µM	> 100 µM	> 100 µM	> 100 µM	> 100 µM	> 100 µM	> 100 µM		> 100 µM		> 100 µM
C=C(/C=C/C=C(\C)CCC=C(C)C)[C@@H]1CC[C@]2([C@H](CCCO)/C(=C(/C)C=O)CC[C@]2(C)O)[C@@H]1O	35.6 µM	44.1 µM	26 µM	15.4 µM		41.8 µM	59.5 µM		52.7 µM		48 µM
Cn1c(-c2ccc(C=O)o2)ccc1-c1ccc(C=O)o1	> 100 µM	> 100 µM	> 100 µM	> 100 µM	> 100 µM		> 100 µM	> 100 µM	> 100 µM	> 100 µM	> 100 µM
Nc1nc(Cl)cc(NCC2(CCO)CCC2)n1	> 100 µM	> 100 µM		> 100 µM	> 100 µM		> 100 µM	> 100 µM	> 100 µM	> 100 µM	> 100 µM
Cc1nc2c(c(N3CCN(C)CC3)n1)Cc1ccccc1-2		> 100 µM	> 100 µM	> 100 µM	> 100 µM	> 100 µM	> 100 µM	> 100 µM	74.6 µM	> 100 µM	62.8 µM
